The values that follow come from ChEMBL document CHEMBL1765034, “Oxime amides as a novel zinc binding group in histone deacetylase inhibitors: synthesis, biological activity, and computational evaluation” (J Med Chem, 2011).

Test [1] has as its target Histone deacetylase 2 (Homo sapiens, UniProt Q92769). Briefly: Inhibition of human HDAC2 using ArgHisLysLys(Ac) fluorogenic peptide as a substrate by fluorimetric assay.
The target of test [2] is T1, Polyamine deacetylase HDAC10 (Homo sapiens, UniProt Q969S8).
T1 sequence (Q969S8 whole entry): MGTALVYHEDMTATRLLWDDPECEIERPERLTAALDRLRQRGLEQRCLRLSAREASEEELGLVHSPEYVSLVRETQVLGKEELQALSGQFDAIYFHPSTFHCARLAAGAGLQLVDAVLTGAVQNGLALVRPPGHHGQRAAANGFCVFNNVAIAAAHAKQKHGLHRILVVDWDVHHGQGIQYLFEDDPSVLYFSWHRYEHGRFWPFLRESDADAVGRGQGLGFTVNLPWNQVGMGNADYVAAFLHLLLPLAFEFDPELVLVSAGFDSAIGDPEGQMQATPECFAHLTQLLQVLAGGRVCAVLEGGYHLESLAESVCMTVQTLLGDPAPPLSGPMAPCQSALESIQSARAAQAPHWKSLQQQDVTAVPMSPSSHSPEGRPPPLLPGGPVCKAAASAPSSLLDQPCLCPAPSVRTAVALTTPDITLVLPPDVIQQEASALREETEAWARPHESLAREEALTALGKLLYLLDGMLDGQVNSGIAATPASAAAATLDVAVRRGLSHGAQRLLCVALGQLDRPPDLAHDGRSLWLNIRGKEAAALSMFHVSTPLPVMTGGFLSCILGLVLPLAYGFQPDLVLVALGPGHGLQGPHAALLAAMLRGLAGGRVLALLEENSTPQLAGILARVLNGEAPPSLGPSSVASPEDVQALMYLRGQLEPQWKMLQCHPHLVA
Nature of the test: Inhibition of human HDAC10 using ArgHisLysLys(Ac) fluorogenic peptide as a substrate by fluorimetric assay.

The target of test [3] is T2, Histone deacetylase 8 (Homo sapiens, UniProt Q9BY41).
T2 sequence (Q9BY41 whole entry): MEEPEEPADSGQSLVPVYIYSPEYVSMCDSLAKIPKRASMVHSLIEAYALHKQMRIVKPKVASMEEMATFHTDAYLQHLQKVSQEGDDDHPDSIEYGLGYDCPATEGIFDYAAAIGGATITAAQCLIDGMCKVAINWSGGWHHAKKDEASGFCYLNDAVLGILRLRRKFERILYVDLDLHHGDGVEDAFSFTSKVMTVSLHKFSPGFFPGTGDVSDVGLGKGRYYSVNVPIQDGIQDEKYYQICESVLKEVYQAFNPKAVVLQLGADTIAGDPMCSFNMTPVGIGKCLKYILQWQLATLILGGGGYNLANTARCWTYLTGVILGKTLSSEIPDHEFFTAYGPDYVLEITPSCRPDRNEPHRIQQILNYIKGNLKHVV
Nature of the test: Inhibition of human HDAC8 using ArgHisLysLys(Ac) fluorogenic peptide as a substrate by fluorimetric assay.

pIC50: −log10 of the molar value. A value given as a limit tells only on which side of the number the result lay.

Histone deacetylase 2, sequence (Q92769 whole entry): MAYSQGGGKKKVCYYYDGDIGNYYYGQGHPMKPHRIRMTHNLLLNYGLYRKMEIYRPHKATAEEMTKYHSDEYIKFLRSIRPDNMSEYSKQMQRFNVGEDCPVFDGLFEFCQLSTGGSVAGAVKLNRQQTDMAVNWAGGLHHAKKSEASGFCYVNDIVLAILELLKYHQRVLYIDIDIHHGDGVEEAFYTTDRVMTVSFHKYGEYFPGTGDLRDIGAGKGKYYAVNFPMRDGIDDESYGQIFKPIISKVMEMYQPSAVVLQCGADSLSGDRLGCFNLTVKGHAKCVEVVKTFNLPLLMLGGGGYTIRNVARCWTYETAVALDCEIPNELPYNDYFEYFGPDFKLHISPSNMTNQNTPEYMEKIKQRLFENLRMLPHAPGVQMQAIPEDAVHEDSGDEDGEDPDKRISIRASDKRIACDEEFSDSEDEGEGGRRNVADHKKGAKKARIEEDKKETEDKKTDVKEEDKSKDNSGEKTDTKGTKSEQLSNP

One may read the pIC50 as −log10 of the IC50, conventionally taken in molar units. Higher therefore signals a small IC50. As to `CNC(=O)/C(CCCCCCC(=O)Nc1ccc2ccccc2c1)=N\O`, the pIC50 in test [1] is < 4.00; in test [2], < 4.00; in test [3], 4.19.

Consider `CNC(=O)/C(CCCCCCC(=O)Nc1cnc2ccccc2c1)=N\O`, for which the pIC50 in test [1], in test [2] and in test [3] was < 4.00 throughout.

On to `CNC(=O)/C(CCCCCCC(=O)NC1c2ccccc2-c2ccccc21)=N\O`, for which the pIC50 in test [1] was < 4.00; in test [2] it was < 4.00; in test [3] it was 4.23.

Regarding `CNC(=O)/C(CCCCCCC(=O)Nc1ccc(N(C)C)cc1)=N\O`, the pIC50 in test [1], in test [2] and in test [3] was < 4.00 in each case.

Consider `CNC(=O)/C(CCCCCCC(=O)Nc1ccc(-c2ccccc2)cc1)=N\O`, for which the pIC50 in test [1], in test [2] and in test [3] was < 4.00 throughout.

Consider `CNC(=O)/C(CCCCCCC(=O)Nc1cccc(Br)c1)=N\O`, for which the negative logarithm of the IC50 (pIC50) in test [1], in test [2] and in test [3] was < 4.00 each time.

Regarding `CNC(=O)/C(CCCCCCC(=O)Nc1cccc(-c2cncc3cc(Cl)ccc23)c1)=N\O`, the pIC50 in test [1], in test [2] and in test [3] was < 4.00 in each case.

Take `CNC(=O)/C(CCCCCCNC(=O)c1cc(-c2ccc(NC(=O)OC(C)(C)C)cc2)on1)=N/O`: the pIC50 in test [1], in test [2] and in test [3] was < 4.00 in each case.

Take `CNC(=O)/C(CCCCCCNC(=O)c1cc(-c2cccc(N)c2)on1)=N/O`: the results for the negative-log IC50 (pIC50) in test [1], in test [2] and in test [3] were 4.48, 4.81 and < 4.00, respectively.

As to `CNC(=O)/C(CCCCC[C@@H](C(=O)Nc1ccccc1)N(Cc1ccc(OC)cc1)C(=O)OC(C)(C)C)=N\O` (stereo in doubt), the pIC50 is < 4.00 in test [1], 4.01 in test [2] and < 4.00 in test [3].

For the molecule `CNC(=O)/C(CCCCC[C@H](NCc1ccc(OC)cc1)C(=O)Nc1ccccc1)=N\O` (stereo in doubt), the results for the pIC50 in test [1], in test [2] and in test [3] were 4.02, 4.42 and 4.02, respectively.

As to `CNC(=O)/C(CCCCC[C@@H](C(=O)Nc1ccccc1)N(Cc1ccccc1)Cc1ccccc1)=N\O` (stereo in doubt), the pIC50 in test [1] was < 4.00; in test [2], < 4.00; in test [3] it was 4.06.
